Columns and labels:
[1] = molecular target: Lysine-specific demethylase 4E (Homo sapiens, UniProt B2RXH2); assay: Inhibition of human JmjD2e using H3K27(me3) as substrate preincubated for 10 mins followed by substrate addition and measured after 7 mins in presence of alpha-KG by RapidFire Mass Spectrometry
[2] = molecular target: T1, Lysine-specific demethylase 4A (Homo sapiens, UniProt O75164); assay: Inhibition of human JmjD2a using H3K27(me3) as substrate preincubated for 10 mins followed by substrate addition and measured after 7 mins in presence of alpha-KG by RapidFire Mass Spectrometry
[3] = molecular target: Lysine-specific demethylase 6A (Homo sapiens, UniProt O15550); assay: Inhibition of human UTX using Biotin-KAPRKQLATKAARK(me3)SAPATGG as substrate by MALDI-TOF analysis
[4] = molecular target: Lysine-specific demethylase 5C (Homo sapiens, UniProt P41229); assay: Inhibition of human Jarid1c by MALDI-TOF analysis
[5] = molecular target: T1, Lysine-specific demethylase 4A; assay: Inhibition of human JmjD2a by Alphascreen assay
[6] = Prodrug conversion in human primary macrophage lysates assessed as formation of GSK-J1 at 30 uM measured after 1 hr by RP LC-MS/MS analysis; assay type: ADME, subcellular
[7] = Prodrug conversion in human primary macrophage lysates assessed as formation of GSK-J2 at 30 uM measured after 1 hr by RP LC-MS/MS analysis; assay type: ADME, subcellular

T1 sequence (O75164 whole entry): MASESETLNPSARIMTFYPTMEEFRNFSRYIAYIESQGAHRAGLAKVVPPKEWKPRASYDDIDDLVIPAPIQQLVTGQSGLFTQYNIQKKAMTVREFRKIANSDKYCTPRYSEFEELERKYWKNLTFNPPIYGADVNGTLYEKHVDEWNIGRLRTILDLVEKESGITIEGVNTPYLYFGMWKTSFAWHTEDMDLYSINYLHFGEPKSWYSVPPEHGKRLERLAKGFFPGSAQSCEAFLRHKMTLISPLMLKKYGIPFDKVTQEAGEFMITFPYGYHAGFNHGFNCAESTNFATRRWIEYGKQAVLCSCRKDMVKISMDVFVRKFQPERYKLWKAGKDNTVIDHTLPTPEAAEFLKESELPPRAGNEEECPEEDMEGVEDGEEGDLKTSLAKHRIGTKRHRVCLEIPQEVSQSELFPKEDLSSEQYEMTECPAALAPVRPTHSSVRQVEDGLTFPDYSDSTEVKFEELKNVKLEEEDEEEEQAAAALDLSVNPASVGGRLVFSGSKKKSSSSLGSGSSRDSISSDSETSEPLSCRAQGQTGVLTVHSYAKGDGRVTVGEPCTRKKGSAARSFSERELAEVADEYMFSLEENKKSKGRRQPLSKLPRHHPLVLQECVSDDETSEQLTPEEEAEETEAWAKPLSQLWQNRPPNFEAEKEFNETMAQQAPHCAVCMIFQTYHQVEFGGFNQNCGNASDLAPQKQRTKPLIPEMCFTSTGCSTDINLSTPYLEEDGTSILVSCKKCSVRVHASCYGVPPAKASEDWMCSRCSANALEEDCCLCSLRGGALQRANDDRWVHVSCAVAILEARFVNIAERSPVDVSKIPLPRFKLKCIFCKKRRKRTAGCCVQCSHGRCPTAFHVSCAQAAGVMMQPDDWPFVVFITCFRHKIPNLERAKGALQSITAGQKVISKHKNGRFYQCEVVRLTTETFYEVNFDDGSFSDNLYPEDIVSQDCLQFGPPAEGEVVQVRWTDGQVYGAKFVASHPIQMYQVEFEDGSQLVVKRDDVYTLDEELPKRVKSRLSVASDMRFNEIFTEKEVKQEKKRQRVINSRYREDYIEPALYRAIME
Chain of Lysine-specific demethylase 4E (B2RXH2 whole entry): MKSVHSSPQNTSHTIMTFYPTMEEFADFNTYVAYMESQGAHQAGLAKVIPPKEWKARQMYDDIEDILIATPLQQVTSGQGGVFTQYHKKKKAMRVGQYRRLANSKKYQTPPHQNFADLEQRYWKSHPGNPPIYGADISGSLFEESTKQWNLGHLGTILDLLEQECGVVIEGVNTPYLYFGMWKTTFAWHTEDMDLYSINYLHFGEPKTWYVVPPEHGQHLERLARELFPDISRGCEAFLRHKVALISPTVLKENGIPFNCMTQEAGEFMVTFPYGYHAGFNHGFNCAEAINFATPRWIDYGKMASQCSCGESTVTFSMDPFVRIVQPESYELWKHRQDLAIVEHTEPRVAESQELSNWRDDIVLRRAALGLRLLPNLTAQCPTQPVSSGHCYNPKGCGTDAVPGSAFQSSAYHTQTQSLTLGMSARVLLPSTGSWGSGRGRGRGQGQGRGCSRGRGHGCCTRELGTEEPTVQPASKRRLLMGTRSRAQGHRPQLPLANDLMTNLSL
Chain of Lysine-specific demethylase 5C (P41229 whole entry): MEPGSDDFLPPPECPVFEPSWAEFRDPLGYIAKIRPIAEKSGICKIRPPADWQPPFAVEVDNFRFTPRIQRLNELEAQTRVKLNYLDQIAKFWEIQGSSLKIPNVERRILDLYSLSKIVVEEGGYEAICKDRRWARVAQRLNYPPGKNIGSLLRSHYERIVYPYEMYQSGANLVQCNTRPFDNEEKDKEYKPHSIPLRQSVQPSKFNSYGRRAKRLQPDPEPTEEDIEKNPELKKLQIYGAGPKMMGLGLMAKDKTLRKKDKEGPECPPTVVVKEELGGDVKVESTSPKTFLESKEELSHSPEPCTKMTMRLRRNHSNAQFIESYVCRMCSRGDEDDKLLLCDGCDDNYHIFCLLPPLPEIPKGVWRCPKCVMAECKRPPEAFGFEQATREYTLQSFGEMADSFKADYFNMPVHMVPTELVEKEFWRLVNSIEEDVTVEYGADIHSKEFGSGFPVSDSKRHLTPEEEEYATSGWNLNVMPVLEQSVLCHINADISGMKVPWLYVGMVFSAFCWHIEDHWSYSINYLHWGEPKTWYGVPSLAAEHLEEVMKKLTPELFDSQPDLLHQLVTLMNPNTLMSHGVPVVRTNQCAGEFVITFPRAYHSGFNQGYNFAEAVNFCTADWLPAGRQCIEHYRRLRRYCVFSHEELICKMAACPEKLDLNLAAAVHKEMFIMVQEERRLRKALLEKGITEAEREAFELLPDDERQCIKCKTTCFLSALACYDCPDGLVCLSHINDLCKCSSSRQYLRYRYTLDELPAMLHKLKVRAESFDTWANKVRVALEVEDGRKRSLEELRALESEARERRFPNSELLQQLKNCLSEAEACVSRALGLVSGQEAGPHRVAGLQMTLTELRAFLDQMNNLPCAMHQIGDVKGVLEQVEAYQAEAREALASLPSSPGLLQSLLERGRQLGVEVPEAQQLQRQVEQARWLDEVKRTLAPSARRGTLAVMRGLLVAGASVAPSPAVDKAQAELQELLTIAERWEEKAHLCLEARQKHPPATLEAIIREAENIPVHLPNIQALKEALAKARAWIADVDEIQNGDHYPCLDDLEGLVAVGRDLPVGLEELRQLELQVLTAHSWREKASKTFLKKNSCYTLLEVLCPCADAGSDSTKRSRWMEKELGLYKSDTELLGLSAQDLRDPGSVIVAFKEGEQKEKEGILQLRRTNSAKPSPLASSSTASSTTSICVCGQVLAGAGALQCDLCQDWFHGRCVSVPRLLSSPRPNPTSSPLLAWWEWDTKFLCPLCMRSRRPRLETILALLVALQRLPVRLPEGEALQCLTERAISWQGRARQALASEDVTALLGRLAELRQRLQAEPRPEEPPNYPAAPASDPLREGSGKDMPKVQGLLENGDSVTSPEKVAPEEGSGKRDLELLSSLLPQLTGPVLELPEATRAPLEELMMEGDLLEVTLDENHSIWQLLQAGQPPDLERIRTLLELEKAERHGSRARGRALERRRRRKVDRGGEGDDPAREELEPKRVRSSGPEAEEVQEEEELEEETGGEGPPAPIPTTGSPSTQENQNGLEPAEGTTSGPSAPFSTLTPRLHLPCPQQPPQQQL
Chain of Lysine-specific demethylase 6A (O15550 whole entry): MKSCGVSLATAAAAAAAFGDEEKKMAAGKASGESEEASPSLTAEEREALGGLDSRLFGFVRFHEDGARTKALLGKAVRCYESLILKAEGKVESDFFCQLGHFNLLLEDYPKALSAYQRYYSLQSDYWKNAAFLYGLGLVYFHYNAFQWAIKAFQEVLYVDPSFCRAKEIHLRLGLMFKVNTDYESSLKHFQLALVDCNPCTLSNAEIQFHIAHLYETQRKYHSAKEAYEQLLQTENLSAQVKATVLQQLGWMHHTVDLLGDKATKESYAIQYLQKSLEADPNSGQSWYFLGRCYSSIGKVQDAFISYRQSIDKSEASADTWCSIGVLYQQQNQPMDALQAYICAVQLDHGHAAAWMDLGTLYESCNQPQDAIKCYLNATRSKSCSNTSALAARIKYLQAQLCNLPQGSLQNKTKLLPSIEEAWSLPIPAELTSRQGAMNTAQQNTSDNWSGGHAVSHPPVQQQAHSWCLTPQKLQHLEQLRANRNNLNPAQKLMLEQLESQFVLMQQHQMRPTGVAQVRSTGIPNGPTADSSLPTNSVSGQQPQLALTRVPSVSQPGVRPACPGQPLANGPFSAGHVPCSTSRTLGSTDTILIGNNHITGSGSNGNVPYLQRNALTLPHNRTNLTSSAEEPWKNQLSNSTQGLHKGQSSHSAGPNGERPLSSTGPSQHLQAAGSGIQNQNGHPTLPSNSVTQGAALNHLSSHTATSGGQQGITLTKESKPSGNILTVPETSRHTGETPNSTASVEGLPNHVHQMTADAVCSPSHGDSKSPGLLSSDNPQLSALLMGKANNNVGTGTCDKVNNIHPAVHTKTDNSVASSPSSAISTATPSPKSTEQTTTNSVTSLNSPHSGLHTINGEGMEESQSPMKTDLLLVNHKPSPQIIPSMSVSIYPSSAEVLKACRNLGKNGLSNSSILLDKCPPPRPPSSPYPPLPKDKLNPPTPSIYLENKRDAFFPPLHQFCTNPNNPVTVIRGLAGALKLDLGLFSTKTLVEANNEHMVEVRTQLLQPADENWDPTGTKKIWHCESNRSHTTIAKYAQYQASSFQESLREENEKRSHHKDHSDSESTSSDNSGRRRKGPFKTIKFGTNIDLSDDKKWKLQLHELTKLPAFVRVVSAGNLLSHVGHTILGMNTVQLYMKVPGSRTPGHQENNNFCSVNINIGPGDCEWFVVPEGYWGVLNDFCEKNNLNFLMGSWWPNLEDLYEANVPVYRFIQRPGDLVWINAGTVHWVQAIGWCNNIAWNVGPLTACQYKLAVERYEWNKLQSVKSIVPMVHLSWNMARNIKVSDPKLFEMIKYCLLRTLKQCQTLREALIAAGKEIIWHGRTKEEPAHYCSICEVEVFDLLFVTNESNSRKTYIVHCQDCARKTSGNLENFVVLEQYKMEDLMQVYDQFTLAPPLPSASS

Work on `O=C(O)CCNc1cc(N2CCc3ccccc3CC2)nc(-c2cccnc2)n1` yielded an IC50 [1] greater than 100 µM.

`O=C(O)CCNc1cc(N2CCc3ccccc3CC2)nc(-c2ccccn2)n1` showed an IC50 [2] greater than 100 µM, an IC50 [3] of 56 µM and an IC50 [4] greater than 100 µM. For the same compound, the IC50 [5] was 44.3 µM.

For `CCOC(=O)CCNc1cc(N2CCc3ccccc3CC2)nc(-c2ccccn2)n1`, the Drug metabolism [6] was 11.8 µM.

With `CCOC(=O)CCNc1cc(N2CCc3ccccc3CC2)nc(-c2cccnc2)n1` the Drug metabolism [7] was 17.4 µM.

— ChEMBL document CHEMBL5678807, “A selective jumonji H3K27 demethylase inhibitor modulates the proinflammatory macrophage response” (Nature, 2012)
